Measurements reported in PubChem BioAssay (NCI).
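The compound was tested at five concentrations on cells cultured in 96-well plates, with a 48-hour exposure period. TGI marks complete inhibition of growth.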

Assays:
Experiment in all cases: inhibition of tumour cell growth, NCI panel, 48 h
MALME-3M melanoma = system: MALME-3M melanoma
HCC-2998 colon = system: HCC-2998 colon
IGROV1 ovarian = system: IGROV1 ovarian
SF-539 CNS = system: SF-539 CNS
SN12C renal = system: SN12C renal
M14 melanoma = system: M14 melanoma
A498 renal = system: A498 renal
UO-31 renal = system: UO-31 renal
OVCAR-4 ovarian = system: OVCAR-4 ovarian
PC-3 prostate = system: PC-3 prostate
SNB-75 CNS = system: SNB-75 CNS
T-47D breast = system: T-47D breast
RPMI-8226 leukemia = system: RPMI-8226 leukemia
SK-MEL-28 melanoma = system: SK-MEL-28 melanoma
SK-MEL-2 melanoma = system: SK-MEL-2 melanoma
OVCAR-8 ovarian = system: OVCAR-8 ovarian
NCI-H23 lung = system: NCI-H23 lung
COLO 205 colon = system: COLO 205 colon
RXF 393 renal = system: RXF 393 renal
ACHN renal = system: ACHN renal
OVCAR-3 ovarian = system: OVCAR-3 ovarian
UACC-257 melanoma = system: UACC-257 melanoma
MDA-MB-435 = system: MDA-MB-435
U251 CNS = system: U251 CNS
EKVX NSCLC = system: EKVX NSCLC
NCI-H522 lung = system: NCI-H522 lung
CCRF-CEM leukemia = system: CCRF-CEM leukemia
A549 NSCLC = system: A549 NSCLC
BT-549 breast = system: BT-549 breast
SW-620 colon = system: SW-620 colon
LOX IMVI melanoma = system: LOX IMVI melanoma
HCT-116 colon = system: HCT-116 colon
SF-268 CNS = system: SF-268 CNS
SF-295 CNS = system: SF-295 CNS
OVCAR-5 ovarian = system: OVCAR-5 ovarian
NCI-H460 lung = system: NCI-H460 lung
MDA-MB-231 breast = system: MDA-MB-231 breast
786-0 renal = system: 786-0 renal
KM12 colon = system: KM12 colon
NCI-H226 lung = system: NCI-H226 lung
CAKI-1 renal = system: CAKI-1 renal
MDA-N = system: MDA-N
SK-OV-3 ovarian = system: SK-OV-3 ovarian
SNB-19 CNS = system: SNB-19 CNS
HCT-15 colon = system: HCT-15 colon
MCF7 breast = system: MCF7 breast
NCI/ADR-RES ovarian = system: NCI/ADR-RES ovarian
HOP-62 NSCLC = system: HOP-62 NSCLC
TK-10 renal = system: TK-10 renal
HL-60(TB) leukemia = system: HL-60(TB) leukemia
DU-145 prostate = system: DU-145 prostate
SR leukemia = system: SR leukemia
HOP-92 NSCLC = system: HOP-92 NSCLC
SK-MEL-5 melanoma = system: SK-MEL-5 melanoma
HT29 colon = system: HT29 colon
UACC-62 melanoma = system: UACC-62 melanoma
HS 578T breast = system: HS 578T breast
K-562 leukemia = system: K-562 leukemia

CC(C)=CC(O)C(C(O)CCC1(C)OCCO1)S(=O)(=O)c1ccccc1 (configuration not stated)
TGI (MALME-3M melanoma): > 100 µM
TGI (HCC-2998 colon): > 100 µM
TGI (IGROV1 ovarian): > 100 µM
TGI (SF-539 CNS): > 100 µM
TGI (SN12C renal): > 100 µM
TGI (M14 melanoma): > 100 µM
TGI (A498 renal): > 100 µM
TGI (UO-31 renal): > 100 µM
TGI (OVCAR-4 ovarian): > 100 µM
TGI (PC-3 prostate): > 100 µM
TGI (SNB-75 CNS): > 100 µM
TGI (T-47D breast): > 100 µM
TGI (RPMI-8226 leukemia): > 100 µM
TGI (SK-MEL-28 melanoma): > 100 µM
TGI (SK-MEL-2 melanoma): > 100 µM
TGI (OVCAR-8 ovarian): > 100 µM
TGI (NCI-H23 lung): > 100 µM
TGI (COLO 205 colon): > 100 µM
TGI (RXF 393 renal): > 100 µM
TGI (ACHN renal): > 100 µM
TGI (OVCAR-3 ovarian): > 100 µM
TGI (UACC-257 melanoma): > 100 µM
TGI (MDA-MB-435): > 100 µM
TGI (U251 CNS): > 100 µM
TGI (EKVX NSCLC): > 100 µM
TGI (NCI-H522 lung): > 100 µM
TGI (CCRF-CEM leukemia): > 100 µM
TGI (A549 NSCLC): > 100 µM
TGI (BT-549 breast): > 100 µM
TGI (SW-620 colon): > 100 µM
TGI (LOX IMVI melanoma): > 100 µM
TGI (HCT-116 colon): > 100 µM
TGI (SF-268 CNS): > 100 µM
TGI (SF-295 CNS): > 100 µM
TGI (OVCAR-5 ovarian): > 100 µM
TGI (NCI-H460 lung): > 100 µM
TGI (MDA-MB-231 breast): > 100 µM
TGI (786-0 renal): > 100 µM
TGI (KM12 colon): > 100 µM
TGI (NCI-H226 lung): > 100 µM
TGI (CAKI-1 renal): > 100 µM
TGI (MDA-N): > 100 µM
TGI (SK-OV-3 ovarian): > 100 µM
TGI (SNB-19 CNS): > 100 µM
TGI (HCT-15 colon): > 100 µM
TGI (MCF7 breast): > 100 µM
TGI (NCI/ADR-RES ovarian): > 100 µM
TGI (HOP-62 NSCLC): > 100 µM
TGI (TK-10 renal): > 100 µM

C[n+]1c2ccccc2n2c3ccccc3c(NCCCN3CCOCC3)c(C#N)c21
TGI (MALME-3M melanoma): 3.96 µM
TGI (HCC-2998 colon): 3 µM
TGI (SF-539 CNS): 3.57 µM
TGI (SN12C renal): 6.44 µM
TGI (M14 melanoma): 2.85 µM
TGI (A498 renal): > 29 µM
TGI (UO-31 renal): 15.3 µM
TGI (OVCAR-4 ovarian): 8.81 µM
TGI (HL-60(TB) leukemia): > 100 µM
TGI (PC-3 prostate): > 30 µM
TGI (DU-145 prostate): 18.2 µM
TGI (SR leukemia): > 100 µM
TGI (SNB-75 CNS): 5.4 µM
TGI (T-47D breast): > 26.3 µM
TGI (SK-MEL-28 melanoma): > 20.4 µM
TGI (SK-MEL-2 melanoma): 6.42 µM
TGI (NCI-H23 lung): 8.08 µM
TGI (COLO 205 colon): 3.15 µM
TGI (RXF 393 renal): 3.91 µM
TGI (ACHN renal): > 25.5 µM
TGI (OVCAR-3 ovarian): > 28.1 µM
TGI (HOP-92 NSCLC): > 100 µM
TGI (UACC-257 melanoma): 16.7 µM
TGI (MDA-MB-435): 14.1 µM
TGI (U251 CNS): > 28.4 µM
TGI (EKVX NSCLC): 15.1 µM
TGI (SK-MEL-5 melanoma): 9.87 µM
TGI (NCI-H522 lung): 2.25 µM
TGI (CCRF-CEM leukemia): > 100 µM
TGI (A549 NSCLC): 23.8 µM
TGI (BT-549 breast): > 100 µM
TGI (SW-620 colon): 36.6 µM
TGI (LOX IMVI melanoma): 2.64 µM
TGI (HCT-116 colon): 8.32 µM
TGI (SF-268 CNS): 5.39 µM
TGI (SF-295 CNS): 14.8 µM
TGI (OVCAR-5 ovarian): 5.61 µM
TGI (NCI-H460 lung): 2.75 µM
TGI (MDA-MB-231 breast): 4.94 µM
TGI (786-0 renal): 8.32 µM
TGI (KM12 colon): 15.8 µM
TGI (HT29 colon): > 100 µM
TGI (NCI-H226 lung): 6.2 µM
TGI (CAKI-1 renal): 8.38 µM
TGI (MDA-N): 2.9 µM
TGI (UACC-62 melanoma): 13.8 µM
TGI (SK-OV-3 ovarian): 31.9 µM
TGI (SNB-19 CNS): > 26.8 µM
TGI (HCT-15 colon): 19.4 µM
TGI (HS 578T breast): 6.47 µM
TGI (NCI/ADR-RES ovarian): > 76.8 µM
TGI (HOP-62 NSCLC): > 33.5 µM
TGI (TK-10 renal): 10.8 µM

COc1ccc(-c2cn3c(nc4ccccc43)c(/C=C/c3cccs3)n2)cc1
TGI (MALME-3M melanoma): > 100 µM
TGI (HCC-2998 colon): > 100 µM
TGI (SF-539 CNS): > 100 µM
TGI (SN12C renal): > 100 µM
TGI (M14 melanoma): > 100 µM
TGI (A498 renal): > 100 µM
TGI (UO-31 renal): > 100 µM
TGI (OVCAR-4 ovarian): > 100 µM
TGI (HL-60(TB) leukemia): 89.7 µM
TGI (DU-145 prostate): > 100 µM
TGI (SR leukemia): 15.4 µM
TGI (SNB-75 CNS): > 100 µM
TGI (T-47D breast): > 100 µM
TGI (RPMI-8226 leukemia): 44.1 µM
TGI (SK-MEL-28 melanoma): > 100 µM
TGI (SK-MEL-2 melanoma): 45.6 µM
TGI (NCI-H23 lung): > 100 µM
TGI (COLO 205 colon): > 100 µM
TGI (RXF 393 renal): > 100 µM
TGI (ACHN renal): > 100 µM
TGI (OVCAR-3 ovarian): > 100 µM
TGI (HOP-92 NSCLC): > 100 µM
TGI (UACC-257 melanoma): > 100 µM
TGI (MDA-MB-435): 36.5 µM
TGI (U251 CNS): > 100 µM
TGI (SK-MEL-5 melanoma): > 100 µM
TGI (A549 NSCLC): > 100 µM
TGI (BT-549 breast): > 100 µM
TGI (SW-620 colon): > 100 µM
TGI (LOX IMVI melanoma): > 100 µM
TGI (HCT-116 colon): > 100 µM
TGI (SF-268 CNS): > 100 µM
TGI (OVCAR-5 ovarian): > 100 µM
TGI (NCI-H460 lung): > 100 µM
TGI (MDA-MB-231 breast): > 100 µM
TGI (786-0 renal): > 100 µM
TGI (KM12 colon): > 100 µM
TGI (HT29 colon): > 100 µM
TGI (NCI-H226 lung): > 100 µM
TGI (MDA-N): 25.1 µM
TGI (K-562 leukemia): > 100 µM
TGI (UACC-62 melanoma): > 100 µM
TGI (SK-OV-3 ovarian): > 100 µM
TGI (SNB-19 CNS): > 100 µM
TGI (HCT-15 colon): > 100 µM
TGI (MCF7 breast): > 100 µM
TGI (HS 578T breast): > 100 µM
TGI (NCI/ADR-RES ovarian): 51.7 µM
TGI (HOP-62 NSCLC): > 100 µM
TGI (TK-10 renal): > 100 µM
